Experimental data published in patent US9006139B2, “Active compound combinations” (Bayer Intellectual Property GmbH, priority 2009, dated 2015).

Experiments:
Format in all cases: in vivo
Phytophthora infestans = experiment: whole plant or invertebrate; details: Phytophthora infestans, 72 h; for pest or weed control at 1 ppm: read-out: Efficacy in % found, Table A, test 1, 1 ppm a.i.
Leptosphaeria nodorum = Leptosphaeria nodorum test (wheat)/preventive; details: Parastagonospora nodorum, 192 h, Table K, read-out: Efficacy in % found; for pest or weed control at 500 ppm: 500 ppm a.i.; for pest or weed control at 125 ppm: 125 ppm a.i.; for pest or weed control at 62.5 ppm: 62.5 ppm a.i.
Description: (§1) Solvent: 49 parts by weight of n,n-dimethylacetamid
(§2) Emulsifier: 1 part by weight of alkylaryl polyglycol ether
(§3) To produce a suitable preparation of active compound, 1 part by weight of active compound or active compound combination is mixed with the stated amounts of solvent and emulsifier, and the concentrate is diluted with water to the desired concentration. To test for preventive activity, young plants are sprayed with the preparation of active compound or active compound combination at the stated rate of application. After the spray coating has been dried, the plants are sprayed with a spore suspension of Leptosphaeria nodorum. The plants remain for 48 hours in an incubation cabinet at approximately 20° C. and a relative atmospheric humidity of approximately 100%. The plants are placed in the greenhouse at a temperature of approximately 22° C. and a relative atmospheric humidity of approximately 80%. The test is evaluated 8 days after the inoculation. 0% means an efficacy which corresponds to that of the untreated control, while an efficacy of 100% means that no disease is observed.

[1] = test system: Blumeria graminis fsp. tritici; experiment: Blumeria test (wheat)/preventive; details: Table G; 62.5 ppm a.i.
Description: as §1, §2
To produce a suitable preparation of active compound, 1 part by weight of active compound or active compound combination is mixed with the stated amounts of solvent and emulsifier, and the concentrate is diluted with water to the desired concentration. To test for preventive activity, young plants are sprayed with the preparation of active compound or active compound combination at the stated rate of application. After the spray coating has been dried, the plants are dusted with spores of Blumeria graminis fsp. tritici. The plants are placed in the greenhouse at a temperature of approximately 18° C. and a relative atmospheric humidity of approximately 80% to promote the development of mildew pustules. The test is evaluated 7 days after the inoculation. 0% means an efficacy which corresponds to that of the untreated control, while an efficacy of 100% means that no disease is observed.

Sphaerotheca fuliginea = experiment: Sphaerotheca test (cucumbers)/protective; details: Podosphaera fuliginea, 168 h, Table C, read-out: Efficacy in % found
Description: (§4) Solvent: 24.5 parts by weight of acetone
(§5) • 24.5 parts by weight of dimethylacetamide Emulsifier: 1 part by weight of alkylaryl polyglycol ether
To produce a suitable preparation of active compound, 1 part by weight of active compound is mixed with the stated amounts of solvent and emulsifier, and the concentrate is diluted with water to the desired concentration. To test for protect activity, young plants are sprayed with the preparation of active compound at the stated rate of application. After the spray coating has dried on, the plants are inoculated with an aqueous spore suspension of Sphaerotheca fuliginea. The plants are then placed in a greenhouse at approximately 23° C. and a relative atmospheric humidity of approximately 70%. The test is evaluated 7 days after the inoculation. 0% means an efficacy which corresponds to that of the control, while an efficacy of 100% means that no disease is observed.

Alternaria solani = experiment: Alternaria test (tomatoes)/protective; details: Alternaria solani, 72 h, Table E, read-out: Efficacy in % found; for pest or weed control at 2 ppm / pest or weed control at 0.5 ppm: test 1; for pest or weed control at 2 ppm: 2 ppm a.i.; for pest or weed control at 0.5 ppm: 0.5 ppm a.i.
Description: as §4, §5
(§6) To produce a suitable preparation of active compound, 1 part by weight of active compound is mixed with the stated amounts of solvent and emulsifier, and the concentrate is diluted with water to the desired concentration. To test for protective activity, young plants are sprayed with the preparation of active compound at the stated rate of application. After the spray coating has dried on, the plants are inoculated with an aqueous spore suspension of Alternaria solani. The plants are then placed in an incubation cabinet at approximately 20° C. and a relative atmospheric humidity of 100%. The test is evaluated 3 days after the inoculation. 0% means an efficacy which corresponds to that of the control while an efficacy of 100% means that no disease is observed.

Botrytis cinerea = experiment: Botrytis test (beans)/protective; details: Table F; for pest or weed control at 25 ppm / Efficacy in % found: test 1
Description: as §4, §5
To produce a suitable preparation of active compound, 1 part by weight of active compound is mixed with the stated amounts of solvent and emulsifier, and the concentrate is diluted with water to the desired concentration. To test for protective activity, young plants are sprayed with the preparation of active compound. After the spray coating has dried on, 2 small pieces of agar covered with growth of Botrytis cinerea are placed on each leaf. The inoculated plants are placed in a darkened chamber at 20° C. and a relative atmospheric humidity of 100%. 2 days after the inoculation, the size of the lesions on the leaves is evaluated. 0% means an efficacy which corresponds to that of the control, while an efficacy of 100% means that no disease is observed.

Venturia inaequalis = experiment: Venturia test (apples)/protective; details: Table D
Description: as §4, §5
as §6, with “conidia” for “spore”, “the causal agent of apple scab (Venturia inaequalis) and” for “Alternaria solani. The plants are”, “remain for 1 day” for “placed”, “The plants are then placed in a greenhouse at approximately 21° C. and a relative atmospheric humidity of approximately 90%. The” for “The”, “10” for “3”, “control,” for “control”

Septoria tritici = experiment: Septoria tritici-test (wheat)/preventive; details: Table H; 62.5 ppm a.i.
Description: as §1, §2
as §3, with “suspension of Septoria tritici. The plants” for “suspension of Leptosphaeria nodorum. The plants”, “of approximately 100% and afterwards for 60 hours at approximately 15° C. in a translucent incubation cabinet at a relative atmospheric humidity of approximately 100%. The” for “of approximately 100%. The”, “of approximately 15° C. and” for “of approximately 22° C. and”, “is evaluated 21 days after” for “is evaluated 8 days after”

Pyrenophora teres = experiment: Pyrenophora teres-test (barley)/preventive
Description: as §1, §2
as §3, with “Pyrenophora teres.” for “Leptosphaeria nodorum.”, “20°” for “22°”

Plasmopara viticola = experiment: Plasmopara test (grapevines)/protective; details: Table B
Description: as §4, §5
as §6, with “Plasmopara viticola and” for “Alternaria solani. The plants are”, “remain for 1 day” for “placed”, “The plant is subsequently placed for 4 days in a greenhouse at approximately 21° C. and a relative atmospheric humidity of approximately 90%. The plants are then misted and placed for 1 day in an incubation cabinet. The” for “The”, “6” for “3”, “control,” for “control”

[2] = Botrytis cinerea, 48 h, 25 ppm a.i., read-out: Efficacy in % found

In the case of `C[C@@]1(c2ccc(Oc3ccccc3)cc2)OC(=O)N(Nc2ccccc2)C1=O` (racemic) [(3.6), famoxadone], the pest or weed control at 2.5 ppm (Phytophthora infestans; read-out: Efficacy in % found, Table A, test 7, 2.5 ppm a.i.) is reported as 31% and the pest or weed control at 500 ppm (Leptosphaeria nodorum) is reported as 67%.

In the case of `CCCC1COC(Cn2cncn2)(c2ccc(Cl)cc2Cl)O1` (centres unmarked) [(1.40), propiconazole], the “Efficacy in % found” value [1] is reported as 38%.

Work on `OC(Cc1ccccc1Cl)(Cn1nc[nH]c1=S)C1(Cl)CC1` (centres unmarked) [(1.41), prothioconazole] yielded a pest or weed control at 0.5 ppm (Sphaerotheca fuliginea; test 1, 0.5 ppm a.i.) of 37%, a pest or weed control at 2 ppm (Alternaria solani) of 30% and a pest or weed control at 25 ppm (Botrytis cinerea; [2]) of 49%. For the same compound, the pest or weed control at 125 ppm (Leptosphaeria nodorum) was 88%.

Work on `CC(C)(C)C(O)(CCc1ccc(Cl)cc1)Cn1cncn1` (centres unmarked) [(1.47), tebuconazole] yielded a pest or weed control at 2 ppm (Sphaerotheca fuliginea; test 1, 2 ppm a.i.) of 50%, a pest or weed control at 2 ppm (Alternaria solani) of 35% and a pest or weed control at 25 ppm (Botrytis cinerea; [2]) of 4%. For the same compound, the pest or weed control at 125 ppm (Leptosphaeria nodorum) was 88%.

For `Cn1cc(C(=O)Nc2ccc(F)cc2-c2ccc(Cl)c(Cl)c2)c(C(F)F)n1` [(2.2), bixafen], the “Efficacy in % found” value (Venturia inaequalis; test 2, 0.5 ppm a.i.) was 0% and the “Efficacy in % found” value (Septoria tritici) was 50%.

For `O=C(Nc1ccccc1-c1ccc(Cl)cc1)c1cccnc1Cl` [(2.3), boscalid], the “Efficacy in % found” value (Venturia inaequalis; test 1, 5 ppm a.i.) was 0%, the pest or weed control at 25 ppm (Botrytis cinerea; [2]) was 50% and the “Efficacy in % found” value (Pyrenophora teres; Table I1, 62.5 ppm a.i.) was 50%.

`O=C(NCCc1ncc(C(F)(F)F)cc1Cl)c1ccccc1C(F)(F)F` [(2.6), fluopyram] was tested, and the “Efficacy in % found” value (Venturia inaequalis; test 1, 1 ppm a.i.) was 0% and the “Efficacy in % found” value (Septoria tritici) was 90%.

For `CC(C)C1C2CCC1c1c(NC(=O)c3cn(C)nc3C(F)F)cccc12` (centres unmarked) [(2.10), isopyrazam], the “Efficacy in % found” value (Venturia inaequalis; test 1, 1 ppm a.i.) was 28% and the “Efficacy in % found” value (Septoria tritici) was 80%.

`Cc1nn(C)c(F)c1C(=O)Nc1ccccc1C(C)CC(C)C` (centres unmarked) [(2.19), penflufen] was tested, and the “Efficacy in % found” value (Venturia inaequalis; test 1, 1 ppm a.i.) was 0%, the “Efficacy in % found” value (Botrytis cinerea; 50 ppm a.i.) was 65% and the “Efficacy in % found” value (Septoria tritici) was 50%.

`Cn1cc(C(=O)Nc2ccccc2C2CC2C2CC2)c(C(F)F)n1` (centres unmarked) [(2.21), sedaxane] was tested, and the “Efficacy in % found” value (Venturia inaequalis; test 1, 1 ppm a.i.) was 24%, the “Efficacy in % found” value (Botrytis cinerea; 25 ppm a.i.) was 30% and the “Efficacy in % found” value (Pyrenophora teres; Table I1, 125 ppm a.i.) was 50%.

With `Cc1ccc(-c2c(Cl)nc(C#N)n2S(=O)(=O)N(C)C)cc1` [(3.3), cyazofamid] the “Efficacy in % found” value (Plasmopara viticola; 1 ppm a.i.) was 0%.

For `CO/N=C(/C1=NOCCO1)c1ccccc1Oc1ncnc(Oc2ccccc2Cl)c1F` [(3.8), fluoxastrobin], the pest or weed control at 1 ppm (Phytophthora infestans) was 30%, the pest or weed control at 0.5 ppm (Alternaria solani) was 40% and the pest or weed control at 25 ppm (Botrytis cinerea; [2]) was 8%. The pest or weed control at 62.5 ppm (Leptosphaeria nodorum) was 63%.

For `CO/N=C(/C(=O)OC)c1ccccc1COc1ccccc1C` [(3.9), kresoxim-methyl], the pest or weed control at 5 ppm (Sphaerotheca fuliginea; test 4, 5 ppm a.i.) was 52%, the pest or weed control at 2.5 ppm (Alternaria solani; test 2, 2.5 ppm a.i.) was 50% and the pest or weed control at 2.5 ppm (Botrytis cinerea; Botrytis cinerea, 48 h, test 3, 2.5 ppm a.i., read-out: Efficacy in % found) was 75%. For the same compound, the “Efficacy in % found” value (Pyrenophora teres; Table I2, 62.5 ppm a.i.) was 67%.

With `COC(=O)N(OC)c1ccccc1COc1ccn(-c2ccc(Cl)cc2)n1` [(3.13), pyraclostrobin] the pest or weed control at 1 ppm (Phytophthora infestans) was 58%, the “Efficacy in % found” value (Venturia inaequalis; test 1, 0.5 ppm a.i.) was 38% and the pest or weed control at 0.5 ppm (Alternaria solani) was 50%. The pest or weed control at 25 ppm (Botrytis cinerea; [2]) was 63% and the pest or weed control at 62.5 ppm (Leptosphaeria nodorum) was 88%.

In the case of `CON=C(C(=O)OC)c1ccccc1CON=C(C)c1cccc(C(F)(F)F)c1` [(3.17), trifloxystrobin], the “Efficacy in % found” value (Venturia inaequalis; test 1, 0.5 ppm a.i.) is reported as 8%, the pest or weed control at 0.5 ppm (Alternaria solani) is reported as 30% and the pest or weed control at 25 ppm (Botrytis cinerea; [2]) is reported as 40%.

With `CCC(C)(NC(=O)c1cc(Cl)c(C)c(Cl)c1)C(=O)CCl` (centres unmarked) [(4.9), zoxamide] the pest or weed control at 1 ppm (Phytophthora infestans) was 58% and the “Efficacy in % found” value (Plasmopara viticola; 2 ppm a.i.) was 6%.

For `CN(C)C(=S)SSC(=S)N(C)C` [(5.25), thiram], the pest or weed control at 500 ppm (Leptosphaeria nodorum) was 33%.

In the case of `Cc1cc(C2CC2)nc(Nc2ccccc2)n1` [(7.3), cyprodinyl], the pest or weed control at 10 ppm (Botrytis cinerea; Botrytis cinerea, 48 h, test 2, 10 ppm a.i., read-out: Efficacy in % found) is reported as 0% and the “Efficacy in % found” value (Pyrenophora teres; Table I1, 125 ppm a.i.) is reported as 67%.

With `C#CCOc1ccc(CCNC(=O)C(OCC#C)c2ccc(Cl)cc2)cc1OC` (centres unmarked) [(9.5), mandipropamid] the “Efficacy in % found” value (Plasmopara viticola; 1 ppm a.i.) was 57%.

Compound `O=[N+]([O-])c1cc(C(F)(F)F)c(Cl)c([N+](=O)[O-])c1Nc1ncc(C(F)(F)F)cc1Cl` [(14.2), fluazinam] has a pest or weed control at 500 ppm (Leptosphaeria nodorum) of 89%.
